Source: PMC4195764, “Molecular mechanism of ligand recognition by membrane transport protein, Mhp1” (The EMBO Journal, 2014)

What was measured:
Mhp1 [1] = molecular target: T1, Mhp1 (Microbacterium maritypicum, UniProt D6R8X8); assay: stopped-flow tryptophan spectrophotofluorimetry; assay type: binding; parameters: gene hyuP; full-length membrane protein expressed in E. coli BL21(DE3) from pSHP11; GFP-fusion purified for crystallography (details in supplement); conditions: read-out: Apparent Kd
T1 sequence (D6R8X8 1-489): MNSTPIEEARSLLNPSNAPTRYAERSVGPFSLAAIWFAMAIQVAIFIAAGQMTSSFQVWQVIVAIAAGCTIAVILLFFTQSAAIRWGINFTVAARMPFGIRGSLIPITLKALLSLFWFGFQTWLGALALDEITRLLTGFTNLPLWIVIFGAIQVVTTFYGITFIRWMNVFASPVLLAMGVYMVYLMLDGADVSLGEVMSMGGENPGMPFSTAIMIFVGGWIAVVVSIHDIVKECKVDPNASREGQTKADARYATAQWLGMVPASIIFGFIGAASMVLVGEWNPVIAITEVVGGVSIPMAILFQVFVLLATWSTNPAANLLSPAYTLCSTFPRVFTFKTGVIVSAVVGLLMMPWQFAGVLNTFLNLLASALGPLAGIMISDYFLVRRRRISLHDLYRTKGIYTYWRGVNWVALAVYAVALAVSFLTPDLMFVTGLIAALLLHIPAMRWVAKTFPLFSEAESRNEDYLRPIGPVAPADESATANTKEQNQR
Text: stopped-flow tryptophan spectrophotofluorimetry on Mhp1

Mhp1 [2] = molecular target: T1, Mhp1; assay: inhibition of […]-L-IMH uptake into E. coli cells expressing Mhp1; assay type: cell-based; parameters: gene hyuP; full-length membrane protein expressed in E. coli BL21(DE3) from pSHP11; conditions: read-out: Apparent IC5_0
Mhp1 [3] = molecular target: T2, Mhp1 (Microbacterium maritypicum, UniProt D6R8X8, L363A); assay: uptake of […]-L-NMH into E. coli cells expressing mutant; assay type: cell-based; conditions: 50 μM labelled compound, 150 mM NaCl, pH 6.6, 15 s; not transported by wild type
T2 construct: gene hyuP; full-length membrane protein expressed in E. coli BL21(DE3) from pSHP11; GFP-fusion purified for crystallography (details in supplement)
T2 sequence (D6R8X8 whole entry L363A, the tested form may be a part): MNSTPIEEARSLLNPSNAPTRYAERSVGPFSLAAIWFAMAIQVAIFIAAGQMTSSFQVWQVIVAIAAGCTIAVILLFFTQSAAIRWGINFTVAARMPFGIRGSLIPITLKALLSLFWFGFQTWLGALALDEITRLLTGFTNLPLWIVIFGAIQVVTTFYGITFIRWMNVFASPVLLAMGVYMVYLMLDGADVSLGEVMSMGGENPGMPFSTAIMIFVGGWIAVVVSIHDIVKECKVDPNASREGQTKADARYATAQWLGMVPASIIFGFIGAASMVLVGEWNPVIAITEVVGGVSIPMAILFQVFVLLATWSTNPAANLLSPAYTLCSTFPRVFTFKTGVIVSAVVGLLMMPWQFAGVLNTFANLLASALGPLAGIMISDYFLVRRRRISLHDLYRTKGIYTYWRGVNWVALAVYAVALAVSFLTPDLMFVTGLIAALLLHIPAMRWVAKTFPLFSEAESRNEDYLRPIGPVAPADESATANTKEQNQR

Row | SMILES | Kd (Mhp1 [1]) [µM] | IC50 (Mhp1 [2]) [µM] | uptake of 14C-L-NMH into E. coli cells expressing mutant (Mhp1 [3])
1 | O=C1NC(=O)C(=Cc2cccc(Br)c2)N1 (stereo in doubt) [BVH, (5E)-5-[(3-bromophenyl)methylidene] imidazolidine-2,4-dione] | 2 ± 0.2 | 38.8 ± 1.1 | 
2 | O=C1NC(=O)[C@@H](Cc2ccccc2)N1 [D-BH] | 130 ± 10 |  | 
3 | O=C1NC(=O)[C@@H](Cc2c[nH]c3ccccc23)N1 [D-IMH] | 20.6 ± 3.8 |  | 
4 | O=C1NC(=O)[C@@H](Cc2ccc3ccccc3c2)N1 [D-NMH] | 1.8 ± 0.3 | 17.1 ± 1.1 | 

The next lines start with results.

Row | Kd (Mhp1 [1]) [µM] | IC50 (Mhp1 [2]) [µM] | SMILES | uptake of 14C-L-NMH into E. coli cells expressing mutant (Mhp1 [3])
5 | 36 ± 1.4 | 945 ± 1.1 | O=C1NC(=O)[C@H](Cc2ccccc2)N1 [L-BH, (5S)-5-benzylimidazolidine-2,4-dione] | 
6 | 19 ± 2 | 119.2 ± 1.1 | O=C1NC(=O)[C@H](Cc2c[nH]c3ccccc23)N1 [L-IMH, (5S)-5-(1H-indol-3-ylmethyl)imidazolidine-2,4-dione] | 
7 | 3.6 ± 0.8 | 14.9 ± 1.1 | O=C1NC(=O)[C@H](Cc2ccc3ccccc3c2)N1 [L-NMH, (5S)-5-(naphthalen-2-ylmethyl)imidazolidine-2,4-dione] | when Leu363 was mutated to an alanine, uptake was restored
